From ChEMBL document CHEMBL1140941 (J Med Chem, 2009)
The source made the active and inactive calls. The rule behind the calls is not given here.

What was measured:
[1] = molecular target: Oxysterols receptor LXR-alpha (Homo sapiens) (UniProt Q13133); assay: Agonist activity at LXRalpha expressed in african green monkey CV1 cells co-expressing LXRE by luciferase reporter gene assay; type: functional, cell-based; conditions: CV-1
[2] = molecular target: T1, Peroxisome proliferator-activated receptor delta (Homo sapiens) (UniProt Q03181); assay: Agonist activity at PPARdelta expressed in african green monkey CV1 cells co-expressing MH100 by luciferase reporter gene assay; type: functional, cell-based; conditions: CV-1
T1 sequence (whole entry): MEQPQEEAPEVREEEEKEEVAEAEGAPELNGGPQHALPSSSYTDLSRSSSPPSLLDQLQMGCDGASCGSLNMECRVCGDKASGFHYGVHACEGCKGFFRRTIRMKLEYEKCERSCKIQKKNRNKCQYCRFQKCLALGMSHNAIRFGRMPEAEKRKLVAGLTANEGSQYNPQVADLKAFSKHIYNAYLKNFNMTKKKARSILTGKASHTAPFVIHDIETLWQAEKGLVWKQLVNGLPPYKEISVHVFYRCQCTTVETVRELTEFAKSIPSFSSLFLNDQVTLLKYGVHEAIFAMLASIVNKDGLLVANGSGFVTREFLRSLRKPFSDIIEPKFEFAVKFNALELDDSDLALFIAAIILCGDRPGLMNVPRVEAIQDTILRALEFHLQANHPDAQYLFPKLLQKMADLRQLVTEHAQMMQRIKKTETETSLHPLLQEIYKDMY

[3] = molecular target: Oxysterols receptor LXR-alpha (Homo sapiens) (UniProt Q13133); assay: Agonist activity at LXRalpha expressed in african green monkey CV1 cells co-expressing LXRE up to 10 uM by luciferase reporter gene assay relative to control; type: functional, cell-based; conditions: CV-1
[4] = molecular target: T2, Glucocorticoid receptor (Homo sapiens) (UniProt P04150); assay: Agonist activity at gal-GR expressed in african green monkey CV1 cells co-expressing MH100 up to 10 uM by luciferase reporter gene assay relative to control; type: functional, cell-based; conditions: CV-1
T2 sequence (whole entry): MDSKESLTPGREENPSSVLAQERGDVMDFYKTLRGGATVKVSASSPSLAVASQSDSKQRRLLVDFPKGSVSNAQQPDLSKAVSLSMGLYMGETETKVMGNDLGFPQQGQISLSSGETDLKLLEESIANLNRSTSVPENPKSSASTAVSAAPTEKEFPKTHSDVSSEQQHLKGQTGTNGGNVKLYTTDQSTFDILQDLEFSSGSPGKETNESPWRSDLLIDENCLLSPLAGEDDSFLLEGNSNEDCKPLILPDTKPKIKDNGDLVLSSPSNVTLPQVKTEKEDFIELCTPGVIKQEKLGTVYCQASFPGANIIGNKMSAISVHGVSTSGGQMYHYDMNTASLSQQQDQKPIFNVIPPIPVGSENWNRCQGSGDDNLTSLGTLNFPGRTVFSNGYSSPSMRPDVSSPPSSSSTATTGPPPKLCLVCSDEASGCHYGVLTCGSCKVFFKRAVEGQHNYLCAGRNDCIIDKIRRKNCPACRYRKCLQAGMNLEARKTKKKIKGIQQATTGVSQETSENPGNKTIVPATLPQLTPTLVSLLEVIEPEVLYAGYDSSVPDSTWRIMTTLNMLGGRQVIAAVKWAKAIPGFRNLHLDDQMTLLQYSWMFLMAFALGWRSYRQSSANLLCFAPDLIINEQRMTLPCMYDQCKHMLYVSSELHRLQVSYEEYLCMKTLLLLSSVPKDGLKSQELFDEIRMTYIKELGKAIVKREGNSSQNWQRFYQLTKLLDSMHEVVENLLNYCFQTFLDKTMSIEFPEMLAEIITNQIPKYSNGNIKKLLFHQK

[5] = molecular target: T3, Mineralocorticoid receptor (Homo sapiens) (UniProt P08235); assay: Antagonist activity at gal-MR expressed in african green monkey CV1 cells co-expressing MH100 at 10 uM by luciferase reporter gene assay; type: functional, cell-based; conditions: CV-1
T3 sequence (whole entry): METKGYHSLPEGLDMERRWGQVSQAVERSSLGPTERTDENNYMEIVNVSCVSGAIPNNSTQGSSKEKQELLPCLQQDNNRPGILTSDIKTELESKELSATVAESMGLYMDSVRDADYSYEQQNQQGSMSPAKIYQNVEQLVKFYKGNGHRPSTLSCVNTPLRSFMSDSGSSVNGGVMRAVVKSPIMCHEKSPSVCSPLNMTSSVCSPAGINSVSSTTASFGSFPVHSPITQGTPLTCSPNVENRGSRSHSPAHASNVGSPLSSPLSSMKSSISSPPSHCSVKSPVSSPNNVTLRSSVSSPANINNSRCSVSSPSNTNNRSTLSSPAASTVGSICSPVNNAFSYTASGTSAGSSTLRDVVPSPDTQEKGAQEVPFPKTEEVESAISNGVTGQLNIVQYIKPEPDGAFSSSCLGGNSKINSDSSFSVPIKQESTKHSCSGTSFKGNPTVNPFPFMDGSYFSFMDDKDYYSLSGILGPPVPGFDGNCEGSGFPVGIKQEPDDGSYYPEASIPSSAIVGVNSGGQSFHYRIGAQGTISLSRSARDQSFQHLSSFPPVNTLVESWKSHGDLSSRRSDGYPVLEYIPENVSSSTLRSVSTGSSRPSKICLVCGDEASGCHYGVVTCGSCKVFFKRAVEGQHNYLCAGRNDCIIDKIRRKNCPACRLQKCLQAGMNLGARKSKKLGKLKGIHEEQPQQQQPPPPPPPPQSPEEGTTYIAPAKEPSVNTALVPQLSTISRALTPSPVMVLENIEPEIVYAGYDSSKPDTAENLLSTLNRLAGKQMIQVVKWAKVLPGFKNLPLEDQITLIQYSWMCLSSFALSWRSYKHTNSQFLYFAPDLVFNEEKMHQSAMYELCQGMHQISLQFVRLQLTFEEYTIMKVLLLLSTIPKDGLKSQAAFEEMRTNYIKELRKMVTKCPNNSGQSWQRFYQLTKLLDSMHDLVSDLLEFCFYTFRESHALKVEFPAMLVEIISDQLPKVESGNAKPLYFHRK

[6] = Tmax in CD rat at 3 mg/kg, po; type: ADME, organism-based; parameters: dose 3 mg/kg, route oral; conditions: in vivo

Chain of Oxysterols receptor LXR-alpha (Homo sapiens) (Q13133 whole entry): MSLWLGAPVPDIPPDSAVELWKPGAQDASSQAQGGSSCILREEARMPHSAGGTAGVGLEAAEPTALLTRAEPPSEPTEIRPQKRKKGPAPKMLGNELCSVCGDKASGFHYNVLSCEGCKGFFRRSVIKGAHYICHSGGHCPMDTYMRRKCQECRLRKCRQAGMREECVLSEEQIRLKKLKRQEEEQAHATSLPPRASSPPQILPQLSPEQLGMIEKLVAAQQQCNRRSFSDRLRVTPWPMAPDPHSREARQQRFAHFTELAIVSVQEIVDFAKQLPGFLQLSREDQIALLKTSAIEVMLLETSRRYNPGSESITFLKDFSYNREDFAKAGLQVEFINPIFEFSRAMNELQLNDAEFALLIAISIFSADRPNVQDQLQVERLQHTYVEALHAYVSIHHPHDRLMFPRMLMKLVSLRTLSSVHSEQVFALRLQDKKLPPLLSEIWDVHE

- Activity [1]: inactive
- Activity [2]: inactive
- Activity [3]: inactive
- Activity [4]: inactive
- inhibition [5]: 27%
- Tmax [6]: 10 h
SMILES: CC(C)OC(=O)C1=CN(C(=O)c2ccc(F)c(F)c2)CC(C)(C)c2c1[nH]c1ccccc21 [TUROFEXORATE ISOPROPYL]
